Bounds are passed on as bounds.

Consider eleven compounds from patent US20180221352A1, “3-(1H-PYRROLO[2,3-C]PYRIDIN-2-YL)-1H-PYRAZOLO[3,4-B]PYRIDINES AND THERAPEUTIC USES THEREOF” (Samumed, LLC, priority 2015, published 2018).

Type in all cases: cell-based
For assay [1], the system named is Wnt activity (Sp5-Luc reporter, SW480 colon carcinoma cells). Put plainly: Wnt activity screening assay, Sp5-Luc reporter gene in SW480 cells. The settings on record: Homo sapiens; for EC50: Sp5-Luc reporter, SW480 cells, overnight incubation. The source says: The screening assay for Wnt activity is described as follows. Reporter cell lines can be generated by stably transducing cancer cell lines (e.g., colon cancer) or primary cells (e.g., IEC-6 intestinal cells) with a lentiviral construct that includes a Wnt-responsive promoter driving expression of the firefly luciferase gene.
SW480 colon carcinoma cells were transduced with a lentiviral vector expressing luciferase with a human Sp5 promoter consisting of a sequence of eight TCF/LEF binding sites. SW480 cells stably expressing the Sp5-Luc reporter gene and a hygromycin resistance gene were selected by treatment with 150 μg/mL of hygromycin for 7 days. These stably transduced SW480 cells were expanded in cell culture and used for all further screening activities. […] For Sp5-Luc reporter gene assays, the cells were plated at 4,000 cells/well in 384-well plates with medium containing 1% fetal bovine serum and incubated overnight at 37° C. and 5% CO2. Following incubation, 20 μl of BrightGlo luminescence reagent (Promega) was added to each well of the 384-well assay plates. The plates were placed on an orbital shaker for 2 min and then luminescence was quantified using the Envision (Perkin Elmer) plate reader. Readings were normalized to DMSO only treated cells, and normalized activities were utilized for EC50 calculations using the dose-response log (inhibitor) vs. response−variable slope (four parameters) nonlinear regression feature available in GraphPad Prism 5.0 (or Dotmatics).
(In general: Reporter assays use an easily measured gene product as a stand-in for the process of interest.)

The subject of a further assay is SW480 colon cancer cells. Put plainly: Cell viability assay (CellTiter-Blue). The note with it: Homo sapiens; for EC50: 96 h, SW480 cell viability, four days. The method, then:
Representative compounds were screened using the following assay procedure to assess the effect on cell viability as described below.
Approximately 2×10^3 SW480 colon cancer cells were seeded into each well and allowed to incubate in the presence or absence of compound for four days at 37° C./5% CO2. Eight replicates of DMSO-treated cells served as controls and cells treated with compound were performed in duplicate.
After incubation, 20 μL of CellTiter-Blue (Promega) was added to each well allowed to incubate for approximately 3 hours. This reagent was a buffered solution which contains resazurin, metabolically active cells were able to reduce rezarurin (blue) into resorufin (pink) which was highly fluorescent. This measured fluorescence was used as a readout for cell viability.
Background: Alamar Blue is a resazurin reagent that responds to reducing activity.

Assay [2] concerns primary human fibroblasts derived from IPF patients (LL29 cells). Put plainly: Inhibition of fibrotic process, αSMA staining in TGF-β1 treated fibroblasts. The note with it: Fibroblast, 96 h, LL29 cells, TGF-β1 20 ng/mL, 4 days, % αSMA positive cells. The method, then: Representative compounds were screened using primary human fibroblasts (derived from IPF patients) treated with TGF-β1 to determine their ability to inhibit the fibrotic process.
LL29 cells are plated at 1,500 cells/well in 80 μL/well F12 medium supplemented with 1% Fetal Bovine Serum. […] Wells treated with TGF-31 and containing DMSO were used as controls. […] Following incubation for 4 days, SYTOX green nucleic acid stain (Life Technologies [Thermo Fisher Scientific]) was added to the wells at a final concentration of 1 μM and incubated at room temperature for 30 min.

In assay [3] the test system is primary human mesenchymal stem cells (hMSCs). Put plainly: Induction of chondrogenesis in hMSCs (nodule count). The note with it: 6 days; for EC50: concentration required to induce 50% levels of chondrogenesis vs TGF-β3, read-out: Conc (nM) of 50% TGF-β3 activity; for Emax: relative to TGF-β3 (10 ng/mL) positive control, read-out: Max. Activity as % TGF-β3 activity. The text has this: Representative compounds were screened using primary human mesenchymal stem cells (hMSCs) to determine their ability to induce chondrogenesis (process by which cartilage is developed).
Primary human mesenchymal stem cells (hMSCs) were purchased from Lonza (Walkersville, Md.) and expanded in Mesenchymal Stem Cell Growth Media (Lonza). Cells between passage 3 and 6 were used for the experiments.
To image chondrogenic nodules, the cells were fixed using 4% formaldehyde (Electron Microscopy Sciences), and stained with 2 μg/mL Rhodamine B (Sigma-Aldrich) and 20 μM Nile Red (Sigma-Aldrich) [Johnson K., et. al, A Stem Cell-Based Approach to Cartilage Repair, Science, (2012). […] Number of nodules in each well was normalized to the average of 3 DMSO treated wells on the same plate using Excel (Microsoft Inc.). The normalized averages (fold change over DMSO) of 3 replicate wells for each compound concentration were calculated. Due to solubility limitations of some of the compounds, curve fitting was incomplete leading to inaccurate EC50 determinations.
Using TGF-β3 as a positive control, the concentration of representative compounds required to induce 50% levels of chondrogenesis is reported. In addition, the maximum activity of each compound and the respective dose that each compound reached maximum chondrogenesis activity is reported.

The subject of a further assay is IL-6. Put plainly: IL-6 inhibition in LPS-stimulated THP-1 cells (HTRF). The settings on record: Homo sapiens; for EC50: THP-1 cells, LPS 500 ng/mL, 22 hours, IL6 HTRF; for inhibition at 10 µM: THP-1, read-out: percent inhibition at 10 μM. The method, then:
THP-1 cells were cultured in basal media with 1% FBS for 24 hours before the start of the assay. […] THP-1 cells were plated at 5000 cells/well in the 384-well plates and incubated at 37° C. for 2 h. 500 ng/mL of LPS was added after 2 hours and cells were incubated for another 22 hours at 37° C. Plates were spun in a centrifuge for 1 minute at […] and a mixture of anti-IL6 XL665, and anti-IL6 Cryptate diluted in reconstitution buffer (Cisbio Inc.) was added to each well. Following incubation for 3 hrs at room temperature, Homogeneous Time-Resolved Fluorescence (HTRF) was measured using the Envision (Perkin Elmer) at 665 nm and […]. The ratio of fluorescence at 665 nm to 620 nm was used as a readout for IL6 quantification. All samples were processed in duplicate. Readings were normalized to DMSO treated cells and normalized activities were utilized for EC50 calculations using the dose-response log (inhibitor) vs. response−variable slope (four parameters) nonlinear regression feature available in GraphPad Prism 5.0 (or Dotmatics).
A general note: In TR-FRET formats the signal depends on donor and acceptor labels being close together.

On to `CCC(=O)Nc1cncc(-c2cnc3[nH]nc(-c4cc5c(-c6cccc(F)c6)cncc5[nH]4)c3c2)c1` [Compound 1, N-(5-(3-(4-(3-Fluorophenyl)-1H-pyrrolo[2,3-c]pyridin-2-yl)-1H-pyrazolo [3,4-b]pyridin-5-yl)pyridin-3-yl)propionamide], for which the EC50 in assay [1] is 246 nM; with SW480 colon cancer cells it was 771 nM; in assay [2] it was 859 nM; in assay [3], 10 nM; with IL-6, 1180 nM. Further, in assay [3], the Emax is 113%.
Turning to `Fc1cccc(-c2cncc3[nH]c(-c4n[nH]c5ncc(-c6cccnc6)cc45)cc23)c1` [Compound 4, 3-(4-(3-Fluorophenyl)-1H-pyrrolo[2,3-c]pyridin-2-yl)-5-(pyridin-3-yl)-1H-pyrazolo[3,4-b]pyridine], the EC50 is 572 nM in assay [1], 1070 nM in the assay on SW480 colon cancer cells, 1010 nM in assay [2] and 232 nM in the assay with IL-6. Moreover, in assay [3], the Emax worked out at 36%.
In the case of `CC(C)Nc1cncc(-c2cnc3[nH]nc(-c4cc5c(-c6cccc(F)c6)cncc5[nH]4)c3c2)c1` [Compound 12, 5-(3-(4-(3-Fluorophenyl)-1H-pyrrolo[2,3-c]pyridin-2-yl)-1H-pyrazolo[3,4-b]pyridin-5-yl)-N-isopropylpyridin-3-amine], the EC50 in assay [1] was 238 nM; with SW480 colon cancer cells, 851 nM; in assay [2] it was 713 nM; in assay [3], 900 nM; with IL-6, 148 nM. Further, the Emax in assay [3] amounted to 104%.
One may read the inhibition as how much of the control response was suppressed. On to `Fc1cccc(-c2cncc3[nH]c(-c4n[nH]c5ncc(-c6cncc(CN7CCCCC7)c6)cc45)cc23)c1` [Compound 15, 3-(4-(3-Fluorophenyl)-1H-pyrrolo[2,3-c]pyridin-2-yl)-5-(5-(piperidin-1-ylmethyl)pyridin-3-yl)-1H-pyrazolo[3,4-b]pyridine], for which the EC50 in assay [1] is 3120 nM; in the assay with SW480 colon cancer cells it was 3260 nM; in assay [2], 1970 nM; in assay [3] it was 10 nM; with IL-6, over 10000 nM. Besides, the Emax in assay [3] is 108%. Also, the inhibition at 10 µM in the assay on IL-6 amounted to 41%.
Take `Fc1cccc(-c2cncc3[nH]c(-c4n[nH]c5ncc(-c6cncc(CNCc7ccccc7)c6)cc45)cc23)c1` [Compound 24, N-Benzyl-1-(5-(3-(4-(3-fluorophenyl)-1H-pyrrolo[2,3-c]pyridin-2-yl)-1H-pyrazolo[3,4-b]pyridin-5-yl)pyridin-3-yl)methanamine]: the EC50 in assay [1] is 3920 nM; in the assay on SW480 colon cancer cells, 2800 nM; in assay [2] it was 1280 nM; in assay [3], 900 nM; in the assay on IL-6, 2090 nM. Moreover, the Emax in assay [3] was 65%.
As to `Cc1ccncc1-c1cnc2[nH]nc(-c3cc4c(-c5ccc(F)cc5)cncc4[nH]3)c2c1` [Compound 33, 3-(4-(4-Fluorophenyl)-1H-pyrrolo[2,3-c]pyridin-2-yl)-5-(4-methylpyridin-3-yl)-1H-pyrazolo[3,4-b]pyridine], the inhibition at 10 µM amounted to 49.4% in assay [1] (SW480, read-out: percent inhibition at 10 μM) and 26.1% in the assay on IL-6. The EC50 in assay [1] is over 10000 nM; in the assay with SW480 colon cancer cells, 2090 nM; in assay [2], 1040 nM; in assay [3], 10 nM; in the assay with IL-6 it was over 10000 nM. In addition, in assay [3], the Emax came out at 67%.
In the case of `Fc1ccc(-c2cncc3[nH]c(-c4n[nH]c5ncc(-c6cncc(CN7CCCC7)c6)cc45)cc23)cc1` [Compound 42, 3-(4-(4-Fluorophenyl)-1H-pyrrolo[2,3-c]pyridin-2-yl)-5-(5-(pyrrolidin-1-ylmethyl)pyridin-3-yl)-1H-pyrazolo[3,4-b]pyridine], the EC50 in assay [1] came to 2140 nM; in the assay on SW480 colon cancer cells it was 940 nM; in assay [2] it was 1290 nM; in assay [3] it was 2700 nM; with IL-6, 3270 nM. In addition, the Emax in assay [3] is 133%.
As to `Fc1ccc(-c2cncc3[nH]c(-c4n[nH]c5ncc(-c6cncnc6)cc45)cc23)cc1` [Compound 55, 3-(4-(4-Fluorophenyl)-1H-pyrrolo[2,3-c]pyridin-2-yl)-5-(pyrimidin-5-yl)-1H-pyrazolo[3,4-b]pyridine], the EC50 was 594 nM in assay [1], 1130 nM with SW480 colon cancer cells, 854 nM in assay [2] and over 10000 nM with IL-6. The Emax in assay [3] is 24%. For the same compound, the inhibition at 10 µM in the assay with IL-6 amounted to 29.8%.
Consider `CCNCc1cncc(-c2cnc3[nH]nc(-c4cc5c(-c6ccccc6F)cncc5[nH]4)c3c2)c1` [Compound 62, N-((5-(3-(4-(2-Fluorophenyl)-1H-pyrrolo[2,3-c]pyridin-2-yl)-1H-pyrazolo [3,4-b]pyridin-5-yl)pyridin-3-yl)methyl)ethanamine], for which the EC50 was 2300 nM in assay [1], 1910 nM in the assay on SW480 colon cancer cells, 2670 nM in assay [2] and 9080 nM in the assay on IL-6. The Emax in assay [3] was determined as 37%.
Regarding `CC(C)C(=O)Nc1cncc(-c2cnc3[nH]nc(-c4cc5c(-c6ccccc6F)cncc5[nH]4)c3c2)c1` [Compound 65, N-(5-(3-(4-(2-Fluorophenyl)-1H-pyrrolo[2,3-c]pyridin-2-yl)-1H-pyrazolo [3,4-b]pyridin-5-yl)pyridin-3-yl)isobutyramide], the EC50 turned out to be 2090 nM in assay [1], 2860 nM in the assay with SW480 colon cancer cells, 2390 nM in assay [2] and 1440 nM in the assay on IL-6. Moreover, the Emax in assay [3] was determined as 45%.
As to `Cn1cc(-c2cnc3[nH]nc(-c4cc5c(-c6cc(F)cc(CNS(C)(=O)=O)c6)cncc5[nH]4)c3c2)cn1` [Compound 764, N-(3-Fluoro-5-(2-(5-(1-methyl-1H-pyrazol-4-yl)-1H-pyrazolo[3,4-b]pyridin-3-yl)-1H-pyrrolo[2,3-c]pyridin-4-yl)benzyl)methanesulfonamide], the EC50 in assay [1] was 1160 nM; in the assay on SW480 colon cancer cells, over 10000 nM; in assay [2] it was 1040 nM; in the assay on IL-6, 199 nM. Also, in the assay on SW480 colon cancer cells (SW480, 96 h, read-out: percent inhibition at 10 μM), the inhibition at 10 µM turned out to be 0%.
